# Tests used:
# [1] = Stability in storage of thermal transfer recorded images; details: 50° C., 50 hours
# Procedure: The recorded images obtained as described above were left standing in an atmosphere kept at 50° C. for 50 hours and, after the standing, were examined to determine the presence or absence of change caused on the images owing to the standing.
# (§1) Ink compositions were prepared, transfer sheets produced, and transfer recording carried out by following the procedure of Example 89 while using the dye shown in Table 11 instead. The recorded images were tested for lightfastness and then for stability in storage in the same manner as in Example 89.
# as §1, with “dyes” for “dye”, “12” for “11”
# [2] = Visible absorption spectrum (λmax, ε); assay type: physicochemical; details: for ε: in M-1 cm-1 (unit assumed)
# [3] = Color tone of the dye; assay type: physicochemical; details: Tables 1-9
# [4] = Solubility in toluene and methyl ethyl ketone, three-point scale; assay type: physicochemical
# From the text: In these tables, the solubility is rated on the three-point scale, wherein Δ stands for a solubility of less than 1% by weight, .largecircle. for a solubility in the approximate range of 1 to 3% by weight, and .circleincircle. for a solubility of not less than 3% by weight.
SMILES,Stability in storage [1],λ max ([2]; in chloroform),"ε ([2]; in chloroform, at λ max)",Color tone [3],λ max ([2]; in toluene),ε ([2]; in toluene),Solubility ([4]; in toluene),Solubility in methyl ethyl ketone [4],Solubility in toluene ([4]; in toluene)
CCCCOc1c(Nc2c(CC)ccc(Cl)c2CC)c(Nc2c(CC)ccc(Cl)c2CC)c(F)c2c1C(=O)c1c(O)ccc(O)c1C2=O [(160)],Good,,,,,,,,
CCCCCCCCOc1c(F)c2c(c(F)c1Nc1c(CC)cccc1CC)C(=O)c1c(O)ccc(O)c1C2=O [(51)],Good,563 nm,11400,Purple,,,,.circleincircle. (a solubility of not less than 3% by weight),.circleincircle. (a solubility of not less than 3% by weight)
O=C1c2ccc(Nc3c(Cl)cccc3Cl)cc2C(=O)c2c(O)ccc(O)c21 [(102)],Good,,,,516 nm,15600,Not less than 3 % by weight,,
CCCCOc1c(Nc2c(C)cccc2C(=O)OCC)c(Nc2c(C)cccc2C(=O)OCC)c(F)c2c1C(=O)c1c(O)ccc(O)c1C2=O [(162)],Good,,,,,,,,
CCc1cccc(CC)c1Nc1c(F)c(F)c2c(c1F)C(=O)c1c(O)ccc(O)c1C2=O [(18)],,528 nm,14200,Magenta,,,,.largecircle. (a solubility in the approximate range of 1 to 3% by weight),.circleincircle. (a solubility of not less than 3% by weight)
CCCCNc1c(F)c(F)c2c(c1F)C(=O)c1c(O)ccc(O)c1C2=O [(117)],,533 nm,17900,Magenta,,,,.largecircle. (a solubility in the approximate range of 1 to 3% by weight),.largecircle. (a solubility in the approximate range of 1 to 3% by weight)
O=C1c2c(O)ccc(O)c2C(=O)c2c(F)c(Sc3ccccc3)c(Sc3ccccc3)c(F)c21 [(298)],,489 nm,12700,Orange,,,,.largecircle. (a solubility in the approximate range of 1 to 3% by weight),.circleincircle. (a solubility of not less than 3% by weight)
COc1ccc(Nc2c(F)c(F)c3c(c2F)C(=O)c2c(O)ccc(O)c2C3=O)cc1 [(15)],,542 nm,10200,Magenta,,,,.largecircle. (a solubility in the approximate range of 1 to 3% by weight),.largecircle. (a solubility in the approximate range of 1 to 3% by weight)
CC(C)(C)Sc1c(F)c2c(c(F)c1SC(C)(C)C)C(=O)c1c(O)ccc(O)c1C2=O [(305)],,506 nm,15300,Orange,,,,.circleincircle. (a solubility of not less than 3% by weight),.circleincircle. (a solubility of not less than 3% by weight)
CCCCNc1c(F)c2c(c(F)c1Nc1ccc(OC)cc1)C(=O)c1c(O)ccc(O)c1C2=O [(228)],,666 nm,22800,Cyan,,,,.largecircle. (a solubility in the approximate range of 1 to 3% by weight),.largecircle. (a solubility in the approximate range of 1 to 3% by weight)
CCCCOc1c(Nc2c(C(C)C)cccc2C(C)C)c(Nc2c(C(C)C)cccc2C(C)C)c(F)c2c1C(=O)c1c(O)ccc(O)c1C2=O [(159)],Good,,,,,,,,
N#Cc1ccc(Nc2c(F)c3c(c(F)c2Nc2ccc(C#N)cc2)C(=O)c2c(O)ccc(O)c2C3=O)cc1 [(126)],,605 nm,16600,Blue,,,,Δ (a solubility of less than 1% by weight),Δ (a solubility of less than 1% by weight)
CCCCNc1c(F)c2c(c(F)c1Nc1ccccc1)C(=O)c1c(O)ccc(O)c1C2=O [(229)],,666 nm,15300,Cyan,,,,.largecircle. (a solubility in the approximate range of 1 to 3% by weight),.largecircle. (a solubility in the approximate range of 1 to 3% by weight)
CCCCSc1c(SCCCC)c(SCCCC)c2c(c1SCCCC)C(=O)c1c(O)ccc(O)c1C2=O [(308)],,530 nm,11100,Magenta,,,,.largecircle. (a solubility in the approximate range of 1 to 3% by weight),.circleincircle. (a solubility of not less than 3% by weight)
CCCCOC(=O)c1ccc(Nc2c(F)c(F)c3c(c2F)C(=O)c2c(O)ccc(O)c2C3=O)cc1 [(6)],,528 nm,17900,Magenta,,,,.largecircle. (a solubility in the approximate range of 1 to 3% by weight),.largecircle. (a solubility in the approximate range of 1 to 3% by weight)
O=C1c2c(O)ccc(O)c2C(=O)c2c(F)c(NC3CCCCC3)c(F)c(F)c21 [(119)],,536 nm,24500,Magenta,,,,.largecircle. (a solubility in the approximate range of 1 to 3% by weight),.largecircle. (a solubility in the approximate range of 1 to 3% by weight)

# More lines, main results first:
Stability in storage [1],λ max ([2]; in chloroform),"ε ([2]; in chloroform, at λ max)",Color tone [3],λ max ([2]; in toluene),ε ([2]; in toluene),Solubility ([4]; in toluene),SMILES,Solubility in methyl ethyl ketone [4],Solubility in toluene ([4]; in toluene)
Good,,,,,,,CCCCOc1c(Nc2c(CC)cccc2CC)c(Nc2c(CC)cccc2CC)c(F)c2c1C(=O)c1c(O)ccc(O)c1C2=O [(158)],,
,614 nm,14900,Blue,,,,CCCCNc1c(F)c2c(c(NCCCC)c1NCCCC)C(=O)c1c(O)ccc(O)c1C2=O [(248)],.largecircle. (a solubility in the approximate range of 1 to 3% by weight),.largecircle. (a solubility in the approximate range of 1 to 3% by weight)
Good,,,,,,,CCCCCCCCOc1c(Nc2cccc(C(=O)OCC)c2)c(Nc2cccc(C(=O)OCC)c2)c(F)c2c1C(=O)c1c(O)ccc(O)c1C2=O [(156)],,
Good,,,,,,,CCCCCCCCOc1c(Nc2c(Cl)cccc2Cl)c(Nc2c(Cl)cccc2Cl)c(F)c2c1C(=O)c1c(O)ccc(O)c1C2=O [(183)],,
Good,,,,,,,CCc1ccc(Cl)c(CC)c1Nc1c(F)c2c(c(F)c1Nc1c(CC)ccc(Cl)c1CC)C(=O)c1c(O)ccc(O)c1C2=O [(141)],,
,514 nm,12900,Cinnabar,,,,O=C1c2c(O)ccc(O)c2C(=O)c2c(F)c(Sc3ccc(O)cc3)c(Sc3ccc(O)cc3)c(F)c21 [(301)],.largecircle. (a solubility in the approximate range of 1 to 3% by weight),.largecircle. (a solubility in the approximate range of 1 to 3% by weight)
,557 nm,15300,Purple,,,,COc1ccccc1Nc1c(F)c(F)c2c(c1F)C(=O)c1c(O)ccc(O)c1C2=O [(14)],.largecircle. (a solubility in the approximate range of 1 to 3% by weight),.largecircle. (a solubility in the approximate range of 1 to 3% by weight)
,661 nm,21000,Cyan,,,,CCCCNc1c(F)c2c(c(F)c1Nc1cccc(C(=O)OCC)c1)C(=O)c1c(O)ccc(O)c1C2=O [(227)],.largecircle. (a solubility in the approximate range of 1 to 3% by weight),.largecircle. (a solubility in the approximate range of 1 to 3% by weight)
,495 nm,12600,Brown,,,,O=C1c2c(O)ccc(O)c2C(=O)c2c(Sc3ccccc3)c(Sc3ccccc3)c(Sc3ccccc3)c(Sc3ccccc3)c21 [(307)],.largecircle. (a solubility in the approximate range of 1 to 3% by weight),.largecircle. (a solubility in the approximate range of 1 to 3% by weight)
,533 nm,14800,Magenta,,,,O=C1c2c(O)ccc(O)c2C(=O)c2c(F)c(Nc3ccccc3)c(F)c(F)c21 [(1)],Δ (a solubility of less than 1% by weight),.largecircle. (a solubility in the approximate range of 1 to 3% by weight)
Good,,,,,,,CCCCCCCCOc1c(F)c2c(c(F)c1Nc1ccc(C(=O)OCC)cc1)C(=O)c1c(O)ccc(O)c1C2=O [(33)],,
,510 nm,12600,Cinnabar,,,,O=C(O)c1c(F)c(F)c(Sc2c(F)c3c(c(F)c2Sc2c(F)c(F)c(C(=O)O)c(F)c2F)C(=O)c2c(O)ccc(O)c2C3=O)c(F)c1F [(299)],Δ (a solubility of less than 1% by weight),Δ (a solubility of less than 1% by weight)
,630 nm,22300,Blue,,,,O=C1c2c(O)ccc(O)c2C(=O)c2c(F)c(Nc3c(Cl)cccc3Cl)c(Nc3c(Cl)cccc3Cl)c(F)c21 [(138)],.largecircle. (a solubility in the approximate range of 1 to 3% by weight),.largecircle. (a solubility in the approximate range of 1 to 3% by weight)
